In this assay the test system is Platelet Activating Factor induced platelet aggregation. Nature of the assay: Platelet aggregation inhibiting effect of rabbit by PAF (platelet rich plasma, Chrono-log aggregometer). It is filed as cell-based, New Zealand White Rabbit. The following applies: for pIC50: read-out: IC50, 50% of the inhibition concentration, platelet aggregation inhibiting effect; for platelet aggregation inhibiting activity compared with Ginkgolide B: rabbit PRP, PAF-induced, comparison in words. The protocol: The blood gathering in the ear artery of the New Zealand White Rabbit of weight 3~3.5 kg was mixed with 3.8% sodium citrate solution at the ratio of 1:9. After centrifuging for 10 minutes at 1000 rpm, the upper Platelet Rich Plasma(PRP) layer was taken. Again after centrifuging for 10 minutes at 3000 rpm, the upper Platelet Poor Plasma(PPP) was taken.
After measuring the platelet figures of the PRP using the Coulter counter, the platelet figures was adjusted to 3×10^5 /μl by diluting with PPP.
The ginkgolide derivatives which were obtained from the above example 1 and 5~9 was investigated platelet aggregation inhibiting effect by that 270 μl of PRP and 30 μl of the derivative solution was treated using the Chrono-log aggregometer which the light tansmittance of PPP was fixed to 100% and the light tansmittance of PRP was fixed to 0% and then 30 μl of Platelet Activating Factor of 5×10^-9 M and 5×10^-8 M concentration was added.
Then, IC50, 50% of the inhibition concentration, of derivatives was searched.

[1] abbreviates: Oryctolagus cuniculus, Platelet.
Setting [2] is: rabbit PRP adjusted to 3×10^5 /μl platelets, aggregation induced by PAF of 5×10^-9 M and 5×10^-8 M.
Where [3] appears, read: Oryctolagus cuniculus, Platelet, rabbit PRP adjusted to 3×10^5 /μl platelets, aggregation induced by PAF of 5×10^-9 M and 5×10^-8 M.

pIC50: −log10 of the molar value. Where two headings read alike, the source gives them in different places.

As for `C[C@H]1C(=O)OC2C1C13OC4OC(=O)C(O)C45C(C(C)(C)C)CC(OC1=O)C35C2O` (stereo partly drawn) [formula (I-b), 3-dehydroxy-14-epi-Ginkgolide B], under setting [1], the pIC50 was 4.89.
As to “3-dihydroxy-1,10-methylenedioxy-14-epi-Ginkgolide B [formula (III)]”, the “platelet aggregation inhibiting activity compared with Ginkgolide B” value was “low than the Ginkgolide B in its activity”. Besides, the pIC50 under setting [2] was 5.16.
Consider `C[C@@H]1C(=O)OC2C3OCOC4C(=O)OC5OC6(C(=O)OC7CC(C(C)(C)C)C54C736)C21O` (some centres unmarked) [formula (II), 1,10-methylenedioxy-Ginkgolide B], for which the “platelet aggregation inhibiting activity compared with Ginkgolide B” value is given as “low than the Ginkgolide B in its activity”. The pIC50 under setting [3] is 5.98.
As for `CC1C(=O)OC2C(O)C34C5CC(C(C)(C)C)C36C(OC(=O)C6O)OC4(C(=O)O5)C12O` (centres unmarked) [Ginkgolide B, reference compound], under setting [3], the pIC50 is 6.37.
`C[C@@H]1C(=O)O[C@H]2C[C@@]34[C@H]5C[C@@H](C(C)(C)C)[C@]36[C@@H](OC(=O)[C@@H]6O)O[C@@]4(C(=O)O5)[C@]21O` [Ginkgolide A, reference compound]: the pIC50 under setting [1] is 5.76.
Consider `C[C@@H]1C(=O)OC2C1C13OC4OC(=O)C(O)C45C(C(C)(C)C)CC(OC1=O)C35C2O` (some centres unmarked) [formula (I-a), 3-dehydroxy-Ginkgolide B], for which the “platelet aggregation inhibiting activity compared with Ginkgolide B” value is listed as “low than the Ginkgolide B in its activity”. Besides, under setting [1], the pIC50 was 5.58.
For the compound “3-dehydroxy- 1,10-methylenedioxy-Ginkgolide B [formula (IV)]”, the “platelet aggregation inhibiting activity compared with Ginkgolide B” value is “low than the Ginkgolide B in its activity”. The pIC50 under setting [2] is 5.31.

These data come from US5466829A, “Ginkgolide derivatives and a process for preparing them” (priority 1991, dated 1995).
